This assay deals with P388 leukemia ip, CD2F1 mice, survival T/C. Description: NCI In Vivo Anticancer Drug Screen. Data for tumor model P388 Leukemia (intraperitoneal) in CD2F1 (CDF1) mice. The note with it: endpoint: median survival time, higher = longer survival. Here is the method: The antitumor activity of compounds was measured in mice bearing transplantable tumors. Survival or tumor size were measured and the results are expressed as the measurement made in the treated group (T) divided by the measurement made in the vehicle treated control group (C). The tumor model used in this assay is P388 Leukemia (intraperitoneal) in CD2F1 (CDF1) mice

The mark [1] stands for this setting: dose: 100.0 mg/kg/injection, schedule: Q04DX002 (ip), vehicle: saline with Tween-80.
Setting [2] is: dose: 200.0 mg/kg/injection, schedule: Q04DX002 (ip), vehicle: saline with Tween-80.
Where [3] appears, read: dose: 400.0 mg/kg/injection, schedule: Q04DX002 (ip), vehicle: saline with Tween-80.
The mark [4] stands for this setting: dose: 25.0 mg/kg/injection, schedule: Q01DX009 (ip), vehicle: Klucel (hydroxypropylcellulose) (HPC).
The mark [5] stands for this setting: dose: 100.0 mg/kg/injection, schedule: Q01DX009 (ip), vehicle: Klucel (hydroxypropylcellulose) (HPC).
[6] abbreviates: dose: 100.0 mg/kg/injection, schedule: Q04DX003 (ip), vehicle: saline with Tween-80.
The mark [7] stands for this setting: dose: 200.0 mg/kg/injection, schedule: Q04DX003 (ip), vehicle: saline with Tween-80.
Where [8] appears, read: dose: 400.0 mg/kg/injection, schedule: Q04DX003 (ip), vehicle: saline with Tween-80.
The mark [9] stands for this setting: dose: 100.0 mg/kg/injection, schedule: Q01DX009 (ip), vehicle: saline.
The mark [10] stands for this setting: dose: 50.0 mg/kg/injection, schedule: Q01DX005 (ip), vehicle: saline with Tween-80.
The mark [11] stands for this setting: dose: 100.0 mg/kg/injection, schedule: Q01DX005 (ip), vehicle: saline with Tween-80.
The mark [12] stands for this setting: dose: 200.0 mg/kg/injection, schedule: Q01DX005 (ip), vehicle: saline with Tween-80.
Setting [13] is: dose: 50.0 mg/kg/injection, schedule: Q04DX003 (ip), vehicle: saline with Tween-80.

SMILES strings stand for the structures. Several values for one entry are separate records, joined by “and”; a condition that tells them apart may be missing. Equal entries are not always repeated. Toxic doses and inconclusive results are not listed.

Our source for the T/C values is PubChem BioAssay AID330 (DTP/NCI, 2004).

Regarding `CC[N+](CC)(CC)Cc1ccccc1`, the T/C by setting is: (dose: 6.25 mg/kg/injection, schedule: Q04DX003 (ip), vehicle: saline sonified) 109 % of control; (dose: 12.5 mg/kg/injection, schedule: Q04DX003 (ip), vehicle: saline sonified) 109 % of control; (dose: 25.0 mg/kg/injection, schedule: Q04DX003 (ip), vehicle: saline sonified) 109 % of control.

As for `Cc1c(C)c2c(=O)c3ccccc3[nH]c2c2ccccc12`, the T/C was 108 % of control (dose: 50.0 mg/kg/injection, schedule: Q01DX005 (ip), vehicle: Klucel (hydroxypropylcellulose) (HPC)); 98 % of control (dose: 100.0 mg/kg/injection, schedule: Q01DX005 (ip), vehicle: Klucel (hydroxypropylcellulose) (HPC)); 109 % of control (dose: 200.0 mg/kg/injection, schedule: Q01DX005 (ip), vehicle: Klucel (hydroxypropylcellulose) (HPC)).

On to `CC(=O)OC1CCC2C3CCC4=C(C(=O)C=CC4(C)O)C3CCC12C` (stereo not drawn), for which the T/C was 93 % of control (dose: 4.0 mg/kg/injection, schedule: Q01DX009 (ip), vehicle: Klucel (hydroxypropylcellulose) (HPC)); 90 % of control (dose: 8.0 mg/kg/injection, schedule: Q01DX009 (ip), vehicle: Klucel (hydroxypropylcellulose) (HPC)); 101 % of control (dose: 16.0 mg/kg/injection, schedule: Q01DX009 (ip), vehicle: Klucel (hydroxypropylcellulose) (HPC)); 88 % of control (dose: 32.0 mg/kg/injection, schedule: Q01DX009 (ip), vehicle: Klucel (hydroxypropylcellulose) (HPC)); 108 % of control (dose: 64.0 mg/kg/injection, schedule: Q01DX009 (ip), vehicle: Klucel (hydroxypropylcellulose) (HPC)).

On to `O=S1(=O)c2ccccc2C(N2CCCCC2)C1CCCCC1C(N2CCCCC2)c2ccccc2S1(=O)=O` (stereo not drawn), for which the T/C is 100 % of control under setting [1], 98 % of control under setting [2] and 99 % of control under setting [3].

`NS(=O)(=O)c1ccc(Nc2c3ccccc3nc3cc(Cl)ccc23)cc1`: the T/C reads like this: (dose: 6.25 mg/kg/injection, schedule: Q01DX009 (ip), vehicle: Klucel (hydroxypropylcellulose) (HPC)) 98 % of control; (dose: 12.5 mg/kg/injection, schedule: Q01DX009 (ip), vehicle: Klucel (hydroxypropylcellulose) (HPC)) 98 % of control; under setting [4], 90 % of control; under setting [5], 86 % of control.

Consider `CC(C)CNC(=O)CNC(=O)C=[N+]=[N-]`, for which the T/C reads like this: (dose: 50.0 mg/kg/injection, schedule: Q01DX009 (ip), vehicle: saline with Tween-80) 104 % of control; (dose: 100.0 mg/kg/injection, schedule: Q01DX009 (ip), vehicle: saline with Tween-80) 104 % of control; (dose: 200.0 mg/kg/injection, schedule: Q01DX009 (ip), vehicle: saline with Tween-80) 104 % of control.

Take `O=C1CCC(Cc2ccc(C(F)(F)F)cc2)C(=O)N1` (stereo not drawn): the T/C is, setting by setting: (dose: 60.0 mg/kg/injection, schedule: Q01DX005 (ip), vehicle: saline with Tween-80) 102 % of control; (dose: 120.0 mg/kg/injection, schedule: Q01DX005 (ip), vehicle: saline with Tween-80) 95 % of control; (dose: 240.0 mg/kg/injection, schedule: Q01DX005 (ip), vehicle: saline with Tween-80) 98 % of control.

With `O=C1NC(=O)c2ncccc21`, the T/C by setting is: under setting [6], 100 % of control; under setting [7], 100 % of control; under setting [8], 100 % of control.

With `CC(=O)Nc1ccc2c(c1)/C(=C/c1ccc(N(C)C)cc1)c1ccccc1-2`, the T/C reads like this: under setting [4], 91 % of control; (dose: 50.0 mg/kg/injection, schedule: Q01DX009 (ip), vehicle: Klucel (hydroxypropylcellulose) (HPC)) 96 % of control; under setting [5], 96 % of control; (dose: 200.0 mg/kg/injection, schedule: Q01DX009 (ip), vehicle: Klucel (hydroxypropylcellulose) (HPC)) 100 % of control.

As for `O=C(NCSC1=NCCS1)NCSC1=NCCS1`, the T/C runs as follows: (dose: 50.0 mg/kg/injection, schedule: Q01DX009 (ip), vehicle: suspension in saline) 101 % of control and 103 % of control; under setting [9], 91 % of control; (dose: 100.0 mg/kg/injection, schedule: Q01DX009 (ip), vehicle: suspension in saline) 100 % of control and 93 % of control; (dose: 200.0 mg/kg/injection, schedule: Q01DX009 (ip), vehicle: suspension in saline) 100 % of control and 105 % of control; (dose: 400.0 mg/kg/injection, schedule: Q01DX009 (ip), vehicle: saline) 94 % of control; (dose: 400.0 mg/kg/injection, schedule: Q01DX009 (ip), vehicle: suspension in saline) 101 % of control and 98 % of control.

As to `CC(C)(C)c1cc(/C2=c3\cc/c([n-]3)=C(\c3cc(C(C)(C)C)c(O)c(C(C)(C)C)c3)c3ccc([n-]3)/C(c3cc(C(C)(C)C)c(O)c(C(C)(C)C)c3)=c3/cc/c([n-]3)=C(\c3cc(C(C)(C)C)c(O)c(C(C)(C)C)c3)c3ccc2[n-]3)cc(C(C)(C)C)c1O.[Zn]`, the T/C under setting [1] was 97 % of control, the T/C under setting [2] was 88 % of control and the T/C under setting [3] was 90 % of control.

For the compound `Cc1ccccc1NC(=O)Nc1sc(=S)c2c(c1C#N)CCCC2`, the T/C reads like this: under setting [10], 94 % of control; under setting [11], 103 % of control; under setting [12], 103 % of control.

As for `CCN(CC)C(=O)OC1Cc2ccccc2CCc2ccccc2C1`, the T/C was 103 % of control (dose: 100.0 mg/kg/injection, schedule: Q04DX003 (ip), vehicle: Klucel (hydroxypropylcellulose) (HPC)); 101 % of control (dose: 200.0 mg/kg/injection, schedule: Q04DX003 (ip), vehicle: Klucel (hydroxypropylcellulose) (HPC)); 101 % of control (dose: 400.0 mg/kg/injection, schedule: Q04DX003 (ip), vehicle: Klucel (hydroxypropylcellulose) (HPC)).

As for `COc1cc(C=Nc2cc(Cl)ccc2-n2ccnc2C)ccc1N(CCCl)CCCl`, the T/C reads like this: under setting [13], 222 % of control; under setting [7], 88 % of control.

On to `C(=C\c1ccnnc1)/c1ccccc1`, for which the T/C is 97 % of control (dose: 50.0 mg/kg/injection, schedule: Q01DX009 (ip), vehicle: saline); 106 % of control under setting [9]; 101 % of control (dose: 200.0 mg/kg/injection, schedule: Q01DX009 (ip), vehicle: saline).

`Fc1ccc(Oc2ccc(F)cc2)cc1`: the T/C under setting [13] is 106 % of control, the T/C under setting [6] is 107 % of control, the T/C under setting [7] was 111 % of control and the T/C under setting [8] is 109 % of control.

With `CCOC(=O)/C(Cl)=C1\SN(C(=O)OCC)N=C1C`, the T/C was 99 % of control under setting [10], 95 % of control under setting [11] and 96 % of control under setting [12].

For the compound `CC[N+](CC)(CC)CCOc1nc(OCC[N+](CC)(CC)CC)nc(OCC[N+](CC)(CC)CC)n1`, the T/C was 100 % of control (dose: 6.25 mg/kg/injection, schedule: Q01DX009 (ip), vehicle: saline); 100 % of control (dose: 12.5 mg/kg/injection, schedule: Q01DX009 (ip), vehicle: saline); 100 % of control (dose: 25.0 mg/kg/injection, schedule: Q01DX009 (ip), vehicle: saline).

With `C=C1C(=O)O[C@@H]2/C=C(\C)CC/C=C(/COC(C)=O)C[C@@H](OC(C)=O)[C@@H]12`, the T/C by setting is: (dose: 6.25 mg/kg/injection, schedule: Q01DX009 (ip), vehicle: saline with Tween-80) 97 % of control; (dose: 9.0 mg/kg/injection, schedule: Q01DX009 (ip), vehicle: acetone) 106 % of control; (dose: 12.5 mg/kg/injection, schedule: Q01DX009 (ip), vehicle: saline with Tween-80) 103 % of control; (dose: 18.0 mg/kg/injection, schedule: Q01DX009 (ip), vehicle: acetone) 106 % of control; (dose: 25.0 mg/kg/injection, schedule: Q01DX009 (ip), vehicle: saline with Tween-80) 106 % of control; (dose: 36.0 mg/kg/injection, schedule: Q01DX009 (ip), vehicle: acetone) 109 % of control. For the same compound, where the note is “dose: 72.0 mg/kg/injection, schedule: Q01DX009 (ip), vehicle: acetone”, the T/C was 124 % of control.
